Values quoted from earlier work as cited in patent US20140171372A1, “Treatments for Alzheimer's disease” (priority 2012, published 2014).

What was measured:
[1] = treatment of spinal injury, Parkinson disease and AD
AD patients = settings: intracerebroventricular injection, limited number of AD patients
[2] = radiolabeled, injected systemically into animals

Compound	neuroprotective effect in cultured cells (cultured cells)	protective effects relative to GM1 (cultured cells; cultured cells and animal models, compared with GM1)	neuroprotective effect in animal models (animal models)	tolerability in Human [1]	clinical improvement in AD patients (AD patients)	distribution after systemic injection [2]	outcome of clinical trial in AD (patients)
CCCCCCCCCCCCC/C=C/C(O)C(COC1OC(CO)C(OC2OC(CO)C(OC3OC(CO)C(O)C(OC4OC(CO)C(O)C(O)C4O)C3NC(C)=O)C(OC3(C(=O)O)CC(O)C(NC(C)=O)C(C(O)C(O)CO)O3)C2O)C(O)C1O)NC(=O)C(Cl)Cl (stereo not drawn) [LIGA20]	neuroprotective	more potent protective effects than GM1	neuroprotective	–	–	–	–
GM1	neuroprotective	–	neuroprotective	well tolerated	some degree of improvement	reach neuronal synapses and neuromuscular junctions	–
Solanezumab	–	–	–	–	–	–	failed
